Literature values as cited in paper PMC9510668 (Frontiers in Pharmacology, 2022).
Values after ≈ are worked out from the molar mass of the structure shown. Read-outs that look alike come from different tables or passages of the source.

Key:
[1] = cited from earlier work
[2] = cited from earlier work; remark: listed apart in the source
UGT1A1 = system: UGT1A1; parameters: method as in ref [2] (a number printed in a supplementary file, which may have a reference list of its own: not looked up in the article's list); conditions: ref [2]; cited from earlier work
[3] = healthy human, mean, cited from earlier work
CYP3A4 [4] = conditions: read-out: Ki CYP3A4; ketoconazole; ref [1]; cited from earlier work
[5] = human; ref Heath et al., 2010; cited from earlier work
VEGFR = conditions: ref Heath et al., 2010; cited from earlier work
OATP1B1 = conditions: lapatinib; ref [8]; cited from earlier work
P-gp = conditions: lapatinib; ref [8]; cited from earlier work
BCRP1 = target: BCRP1; parameters: method as in ref [8] (a number printed in a supplementary file, which may have a reference list of its own: not looked up in the article's list); conditions: lapatinib; ref [8]; cited from earlier work
CYP3A4 [6] = system: CYP3A4; parameters: method as in ref [6] (a number printed in a supplementary file, which may have a reference list of its own: not looked up in the article's list); conditions: ref [6]; cited from earlier work
CYP3A5 = system: CYP3A5; parameters: method as in ref [6] (a number printed in a supplementary file, which may have a reference list of its own: not looked up in the article's list); conditions: ref [6]; cited from earlier work
[7] = parameters: method as in Röhss and Hedenström, 2002; conditions: 40 mg OD orally for 5 days; ref Röhss and Hedenström, 2002; cited from earlier work

Compound: CC(=O)N1CCN(c2ccc(OCC3COC(Cn4ccnc4)(c4ccc(Cl)cc4Cl)O3)cc2)CC1 (stereo not drawn) [ketoconazole]
- Solubility in buffer ([1]; @pH6.5, ref [1]): 6.93 µg/mL (≈ 13 µM)
- Log (@pH7.4), lipophilicity ([1]; pH7.4, ref [1]): 2.67
- Rbp ([2]; ketoconazole, ref [1]): 0.59
- Km (UGT1A1): 22.3 µM
- UGT1A1 Vmax (UGT1A1): 9.37 pmol/min/pmol
- AUC0-48, Observed ([3]; ketoconazole): 40600 ng·h/mL
- Cmax, Observed ([3]; ketoconazole): 6200 ng/mL

Compound: Cc1c2ccc(N(C)c3ccnc(Nc4ccc(CO)c(S(N)(=O)=O)c4)n3)cc2nn1C [GSK1268997]
- Systemic exposure relative to unchanged PAZ [5]: about 2%
- Potency towards VEGFR in comparison to PAZ (VEGFR): equal potency

Compound: CS(=O)(=O)CCNCc1ccc(-c2ccc3ncnc(Nc4ccc(OCc5cccc(F)c5)c(Cl)c4)c3c2)o1 [lapatinib]
- Water Solubility in FaSSIF pH=6.5 ([1]; ref [3]): 5.4 μg/mL
- fup ([2]; lapatinib, ref [4]): 0.01
- Rbp ([2]; lapatinib, ref [5]): 0.84
- Ki (OATP1B1): 4 µM
- Ki (P-gp): 3.9 µM
- Ki (BCRP1): 0.025 µM
- CPY3A4 CLint (CYP3A4 [6]): 105 µL/min/nmol
- CPY3A5 CLint (CYP3A5): 5 µL/min/nmol
- AUC0-48, Observed ([3]; lapatinib): 5328.9 ng·h/mL
- Cmax, Observed ([3]; lapatinib): 311.0 ng/mL
- Tmax, Observed ([3]; lapatinib): 3 h

Compound: COc1ccc2nc([S@@+]([O-])Cc3ncc(C)c(OC)c3C)[nH]c2c1 [esomeprazole]
- Human intragastric mean 24-h pH [7]: 4.78
